Data on 1 substance can be found in PMC11983575, “Study on the synthesis and biological activity of kojic acid triazol thiosemicarbazide Schiff base derivatives” (Journal of Enzyme Inhibition and Medicinal Chemistry, 2025).

As a reminder, the Ki is a measure of affinity in units of concentration, obtained from inhibition or displacement.

For one test, the target named is mushroom tyrosinase (Agaricus bisporus, UniProt C7FF04). Nature of the test: Tyrosinase kinetic analysis (Lineweaver-Burk plots). The test is classed as biochemical. On the procedure: To study the inhibition type of kojic acid-triazole derivatives, the investigation of inhibitory type of selected compound 6w on mushroom tyrosinase was carried out according to reported protocol. Compound 6w was used at the concentrations of […], respectively. Substrate L-DOPA concentration was between 500 µM and 1000 µM in the process of all kinetic study. Pre-incubation time and measurement time were the same as described in mushroom tyrosinase inhibition assay procedure. Lineweaver–Burk’s plots of inverse of velocities (1/V) versus inverse of substrate concentration 1/[S] µM^−1 were used to determine the type of enzyme inhibition.
Among the assessed kojic acid triazol thiosemicarbazide Schiff base derivatives, compound 6w expressed better tyrosinase inhibitory activity than the other compounds, in order to further explore the inhibition mechanism, the inhibitory type of the compound 6w on mushroom tyrosinase was decided by the Lineweaver–Burk double reciprocal plots. The Lineweaver–Burk plots were obtained by different concentrations of the compound 6w and the substrate (Figure 2(A)). The plots of 1/V versus 1/[S] gave a family of straight lines with different slopes. […] All of the straight lines intersected at a point in the second quadrant. […] The inhibition constant (Ki) of the compound was obtained by a plot of the slope versus the concentrations of the compound 6w, Kis of the compound was obtained by a plot of vertical intercept (1/Vm) versus the concentrations of the compound 6w, the results were shown in Figure 2(B,C). […] Compound 6w has a better binding with free enzyme.
Figure 2. Kinetic inhibition measurement of compound 6w. […] (A) The concentrations of compound 6w in the figure were 0, 0.5 μM, 1 μM, and 2 μM, respectively. (B) The secondary replot indicates the intercept versus the concentrations of compound 6w to define the inhibition constant Kis. (C) The secondary replot indicates the slope versus the concentrations of compound 6w to define the inhibition constant Ki.

Another test deals with T1, tyrosinase (Agaricus bisporus, UniProt C7FF04).
T1 construct: purchased Sigma-Aldrich Chemical Co. (Shanghai, China)
Nature of the test: Fluorescence quenching of tyrosinase (Stern-Volmer). To be noted: for KSV / Kq: Stern-Volmer. The test is classed as binding. On the procedure:
To investigate fluorescence quenching role of inhibitor to the tyrosinase, fluorescence experiments were carried according to the reported method. To determine the linear concentration range of the fluorescence, compound 6w was first dissolved in DMSO. The concentration of the solution was 10 mM, and then was diluted with sodium phosphate buffer. The ultimate concentration was changed from 0 to 50 μM. A series of 3 ml solutions containing 1.5 ml of tyrosinase solution were added to a centrifuge tube and then accurately mixed with different concentrations of 6w solution range from 0 to 50 μM. Cary Eclipse G9800A fluorescence spectrophotometer (Agilent Technologies Co., Santa Clara, CA) was employed to detect the fluorescence intensity. The excitation wavelength was set to 280 nm, the bath was set as three temperatures (292 K, 298 K, and 304 K) with a scanning wavelength change from 300 to 500 nm. The excitation and emission bandwidths were 5 nm. The final tyrosinase concentration was 0.05 mg/ml.
Fluorescence quenching means that some small molecule compounds bind to protein that can affect the fluorescence intensity of the fluorophore. Therefore, in order to obtain information about conformational changes of enzymes, fluorescence spectroscopy has become a very important research tool. With increasing concentrations of compound 6w, the dramatically decreasing fluorescence intensity of tyrosinase could be found. […] At the same time, there was no significant red shift or blue shift in the fluorescence emission peak of tyrosinase after the addition of compound 6w. […] The quenching of the intrinsic fluorescence provided a direct and clear evidence that the inhibitor 6w was capable of binding to tyrosinase, and the binding of 6w to tyrosinase led to change in the microenvironment around the fluorophore, and the detailed KSV values are summarised Table 2.
Figure 3. (A) Changes in the tyrosinase fluorescence at different concentrations of compound 6w (λex = 280 nm, T = 298 K). The final enzyme concentration was 0.05 mg/ml, and c (compound 6w) = 0 μM, 5 μM, 15 μM, 20 μM, 25 μM, 30 μM, 35 μM, 40 μM, 45 μM, and 50 μM for the curves from top to bottom, respectively. (B) The Stern–Volmer figure of compound 6w and tyrosinase at 292, 298, and 304 K.

T1 sequence (C7FF04 1-392 limits assumed): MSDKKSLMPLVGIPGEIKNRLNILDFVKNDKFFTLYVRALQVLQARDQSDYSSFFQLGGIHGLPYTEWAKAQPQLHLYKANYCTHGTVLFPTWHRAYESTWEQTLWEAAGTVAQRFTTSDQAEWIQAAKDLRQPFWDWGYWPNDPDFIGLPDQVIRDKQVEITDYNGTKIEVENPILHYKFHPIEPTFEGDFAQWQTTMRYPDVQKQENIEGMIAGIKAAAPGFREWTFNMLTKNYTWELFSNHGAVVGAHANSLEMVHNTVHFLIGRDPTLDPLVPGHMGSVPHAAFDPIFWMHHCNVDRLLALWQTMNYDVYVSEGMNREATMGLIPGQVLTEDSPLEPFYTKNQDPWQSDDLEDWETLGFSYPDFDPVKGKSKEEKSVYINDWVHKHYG
Sequence of mushroom tyrosinase (C7FF04 1-392): as the sequence (C7FF04 1-392 limits assumed) above

Consider “2-(1-(4-((1-((5-Hydroxy-4-oxo-4H-pyran-2-yl)methyl)-1H-1,2,3-triazol-5-yl)methoxy)phenyl)ethylidene)hydrazinecarbothioamide [Compound 6w]”, for which the inhibition type result against mushroom tyrosinase (Lineweaver-Burk double reciprocal plots) was “mixed type inhibitor”. Further, the Ki on mushroom tyrosinase (from plot of slope versus concentration of 6w, free enzyme, read-out: inhibition constant Ki) was 0.3 nM. On mushroom tyrosinase (from plot of vertical intercept (1/Vm) versus concentration of 6w), the “inhibition constant Kis” value is reported as 0.1997 µM. Besides, the fluorescence quenching mechanism result at tyrosinase (292, 298 and 304 K) is given as “dynamic quenching”. In addition, the values for the KSV at tyrosinase (T 292 K), on tyrosinase (T 298 K) and at tyrosinase (T 304 K) were 0.03005 L/µmol, 0.04605 L/µmol and 0.06529 L/µmol, respectively. The figures for the Kq on tyrosinase (T 292 K), on tyrosinase (T 298 K) and at tyrosinase (T 304 K) were 3.0052e+13 M⁻¹ s⁻¹, 4.6048e+13 M⁻¹ s⁻¹ and 6.5292e+13 M⁻¹ s⁻¹, respectively.
